Data published in patent US12357556B2, “Composition for improving hair health” (K18, Inc., priority 2018, dated 2025).
Residues, ends and D or L forms follow the SMILES beside them.

Biological target: T1, natural hair keratin (Hair Keratin KRTHB1 Basic, SEQ ID NO: 7) (Homo sapiens, UniProt Q14533)
T1 sequence (Q14533 304-505): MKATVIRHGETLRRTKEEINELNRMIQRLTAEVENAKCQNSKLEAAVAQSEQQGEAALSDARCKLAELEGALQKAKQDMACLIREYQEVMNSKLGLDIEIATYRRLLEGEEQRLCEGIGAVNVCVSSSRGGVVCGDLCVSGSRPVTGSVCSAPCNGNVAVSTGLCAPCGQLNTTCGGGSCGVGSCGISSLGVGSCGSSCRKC
Assay: SPRi binding affinity of peptides to keratin printed on a sensor chip
Settings: for kon / koff: SPRi, 4° C., kinetic analysis with BIAevaluation 4.1; for kon: read-out: Ka (association rate constant); for koff: read-out: Kd (dissociation rate constant); for Affinity ranking: rank by KD, the lower the KD the more affinity to hair keratin
Method: Affinity of Aquis peptides with natural hair keratin were tested. A third peptide was also tested with the sequence GGVCGPSPPCITT (SEQ ID NO: 6) known as KP developed by Khairpep as a control. KP has been shown in previous patent and publications to penetrate the hair shaft, bind to keratin and improve hair mechanical properties. Various concentrations of Keratin dissolved in water were manually printed onto the bare gold coated (thickness 47 nm) PlexArray Nanocapture Sensor Chip (Plexera Bioscience, Seattle, WA, US) at 40% humidity. Each concentration was printed in replicate, and each spot contained 0.2 microliters of […] solution. The chip was incubated in 80% humidity at 4° C. for overnight, and rinsed with 10×PBST for 10 min, 1×PBST for 10 min, and deionized water twice for 10 min. The chip was then blocked with 5% (w/v) non-fat milk in water overnight, and washed with 10×PBST for 10 min, 1×PBST for 10 min, and deionized water twice for 10 min before being dried under a stream of nitrogen prior to use. SPRi measurements were performed with PlexAray HT (Plexera Bioscience, Seattle, WA, US). Collimated light (660 nm) passes through the coupling prism, reflects off the SPR-active gold surface, and is received by the CCD camera. Buffers and samples were injected by a non-pulsatile piston pump into the 30 uL flowcell that was mounted on the coupling prim. Each measurement cycle contained four steps: washing with PBST running buffer at a constant rate of 2 uL/s to obtain a stable baseline, sample injection at 5 uL/s for binding, surface washing with PBST at 2 uL/s for 300 s, and regeneration with 0.5% (v/v) H3PO4 at 2 uL/s for 300 s. All the measurements were performed at 4° C. The signal changes after binding and washing (in AU) are recorded as the assay value. Selected protein-grafted regions in the SPR images were analyzed, and the average reflectivity variations of the chosen areas were plotted as a function of time. Real-time binding signals were recorded and analyzed by Data Analysis Module (DAM, Plexera Bioscience, Seattle, WA, US). Kinetic analysis was performed using BIAevaluation 4.1 software (Biacore, Inc.).
FIG. 1 to 3 show the binding affinity to keratin for each peptide tested. The lower the KD value is, the more affinity the peptide has to hair keratin.

For C[C@@H](O)[C@H](NC(=O)[C@H](CO)NC(=O)[C@H](CS)NC(=O)[C@H](CO)NC(=O)[C@@H]1CCCN1C(=O)[C@H](Cc1ccccc1)NC(=O)CNC(=O)[C@H](CS)NC(=O)[C@@H](N)Cc1ccccc1)C(=O)N[C@@H](CO)C(=O)NCC(=O)O [Aquis 1, FCGFPSCSTSG] (H-FCGFPSCSTSG-OH; N-terminus and C-terminus assumed), which kon is on record?
The kon was 1310 M⁻¹ s⁻¹.

What about the koff of the same compound?
The koff was 0.000478 s⁻¹.

And the “affinity to hair keratin compared with the other peptides” value (comparison of Figures 1-3, in words)?
The value was “has the most affinity to hair keratin”.

And the Affinity ranking?
The Affinity ranking was 1.

CC(C)C[C@H](NC(=O)[C@H](CCC(N)=O)NC(=O)[C@H](CS)NC(=O)[C@H](CS)NC(=O)[C@H](CO)NC(=O)[C@@H]1CCCN1C(=O)[C@@H]1CCCN1C(=O)[C@@H](NC(=O)[C@@H](N)CS)[C@@H](C)O)C(=O)N[C@@H](Cc1c[nH]cn1)C(=O)N[C@@H](Cc1c[nH]cn1)C(=O)N[C@@H](C)C(=O)O [Aquis 2, CTPPSCCQLHHA] (H-CTPPSCCQLHHA-OH; N-terminus and C-terminus assumed) was tested. Which kon did it give?
The kon was 8240 M⁻¹ s⁻¹.

And the koff?
Its koff is 0.0206 s⁻¹.

What about the Affinity ranking of the same compound?
Its Affinity ranking is 3.

CC[C@H](C)[C@H](NC(=O)[C@H](CS)NC(=O)[C@@H]1CCCN1C(=O)[C@@H]1CCCN1C(=O)[C@H](CO)NC(=O)[C@@H]1CCCN1C(=O)CNC(=O)[C@H](CS)NC(=O)[C@@H](NC(=O)CNC(=O)CN)C(C)C)C(=O)N[C@H](C(=O)N[C@H](C(=O)O)[C@@H](C)O)[C@@H](C)O [KP, GGVCGPSPPCITT, reference compound] (H-GGVCGPSPPCITT-OH; N-terminus and C-terminus assumed) was tested. Which kon did it give?
The kon was 8500 M⁻¹ s⁻¹.

And the koff?
Its koff is 0.000692 s⁻¹.

And the Affinity ranking?
The Affinity ranking was 2.
